The text below walks through data of ChEMBL document CHEMBL4483862, “Open-source discovery of chemical leads for next-generation chemoprotective antimalarials” (2018).

For the experiment, the system named is Plasmodium berghei. The experiment can be described thus: Luciferase/luciferin-expressing antifolate-resistant parasites were used to infect a culture of HepG2 cells that were pre-incubated with compounds. Infected hepatocytes emit light due to the luciferase reaction. Assay results are presented as the percent inhibition of light emission compared to control. […]. Type of experiment: functional. The settings on record: sporozoite; for IC90: read-out: LUCIFERASE INFECTION ASSAY - IC90.

The IC50 is the concentration needed to halve the response being measured. As usually defined, the IC90 is the concentration needed for an effect of 90%.

Consider `O=C(Nc1ccc(Cl)c(Cl)c1)Nc1ccc(Cl)c(Cl)c1`, for which the 90% effect concentration (IC90) amounted to 1.35 µM. For the same compound, the IC50 (HEPG2TOX_HILL_SLOPE 2.86, HEPG2TOX_R_SQUARED 0.877, PBLUC_HILL_SLOPE 1.38, PBLUC_R_SQUARED 0.733, read-out: LUCIFERASE INFECTION ASSAY - IC50) came out at 0.275 µM.

Consider `COc1ccc(S(=O)(=O)NN(C)c2nc(C(F)(F)F)nc3ccccc23)cc1`, for which the IC90 was found to be 7.15 µM. Moreover, the concentration for half-maximal inhibition (IC50) (HEPG2TOX_HILL_SLOPE 2.85, HEPG2TOX_R_SQUARED 0.931, PBLUC_HILL_SLOPE 2.16, PBLUC_R_SQUARED 0.738, read-out: LUCIFERASE INFECTION ASSAY - IC50) was 2.59 µM.

Turning to `O=C1C=C/C(=N\Nc2ccc3c(c2)OCCO3)c2cccnc21`, the 90% effect concentration (IC90) was found to be 3.95 µM. Besides, the concentration for half-maximal inhibition (IC50) (HEPG2TOX_HILL_SLOPE 2.89, HEPG2TOX_R_SQUARED 0.923, PBLUC_HILL_SLOPE 13, PBLUC_R_SQUARED 0.601, read-out: LUCIFERASE INFECTION ASSAY - IC50) came to 3.33 µM.

`COc1cc(-c2cn3c(-c4ccc5ncccc5c4)cnc3cn2)ccc1O`: the concentration for an effect of 90% (IC90) amounted to 4.57 µM. Where the note is “HEPG2TOX_HILL_SLOPE 2.88, HEPG2TOX_R_SQUARED 0.967, PBLUC_HILL_SLOPE 7.35, PBLUC_R_SQUARED 0.638, read-out: LUCIFERASE INFECTION ASSAY - IC50”, the IC50 was determined as 3.39 µM.

On to `Cc1ccsc1/C=N/Nc1nc2ccccc2nc1C(F)(F)F`, for which the 90% effect concentration (IC90) came to 9.51 µM. The concentration for half-maximal inhibition (IC50) (HEPG2TOX_HILL_SLOPE 2.86, HEPG2TOX_R_SQUARED 0.79, PBLUC_HILL_SLOPE 19.7, PBLUC_R_SQUARED 0.0461, read-out: LUCIFERASE INFECTION ASSAY - IC50) was determined as 8.5 µM.

Take `Cc1cnc(NC(=O)c2ccccc2NS(=O)(=O)c2cccc(C(F)(F)F)c2)s1`: the IC90 is more than 10 µM. Moreover, where the note is “HEPG2TOX_HILL_SLOPE 2.85, HEPG2TOX_R_SQUARED 0.86, read-out: LUCIFERASE INFECTION ASSAY - IC50”, the 50% inhibitory concentration (IC50) is more than 10 µM.

With `Cc1nn(-c2ccccc2)c(C)c1C(=O)Nc1nc2c(s1)CCCC2`, the IC90 is 4.22 µM. Under “HEPG2TOX_HILL_SLOPE 2.86, HEPG2TOX_R_SQUARED 0.355, PBLUC_HILL_SLOPE 1.92, 0.823, PBLUC_R_SQUARED 0.870, 0.934, read-out: LUCIFERASE INFECTION ASSAY - IC50”, the half-maximal inhibitory concentration (IC50) came out at 0.574 µM.

Take `CCCCNC(=O)c1c(NC(=O)c2cc(F)ccc2F)nc2ccccn12`: the IC90 is 3.57 µM. The IC50 (HEPG2TOX_HILL_SLOPE 2.83, HEPG2TOX_R_SQUARED 0.745, PBLUC_HILL_SLOPE 13.2, PBLUC_R_SQUARED 0.5, read-out: LUCIFERASE INFECTION ASSAY - IC50) stood at 3.03 µM.

Take `CCN(CC)c1ccc(NC(=O)c2cccc(F)c2)cc1`: the IC90 came out at 6.44 µM. The 50% inhibitory concentration (IC50) (HEPG2TOX_HILL_SLOPE 2.87, HEPG2TOX_R_SQUARED 0.815, PBLUC_HILL_SLOPE 5.54, PBLUC_R_SQUARED 0.522, read-out: LUCIFERASE INFECTION ASSAY - IC50) turned out to be 4.33 µM.

Regarding `CC(C)Cc1ccc(CN2CCC3(CC2)C(=O)N(CC(C)C)C(=O)N3C)cc1`, the 90% effect concentration (IC90) was more than 8.56 µM. In addition, the concentration for half-maximal inhibition (IC50) (HEPG2TOX_HILL_SLOPE 2.88, HEPG2TOX_R_SQUARED 0.972, PBLUC_HILL_SLOPE 3.02, PBLUC_R_SQUARED 0.492, read-out: LUCIFERASE INFECTION ASSAY - IC50) was 5.03 µM.

Consider `COc1ccc(-c2nc(C(=O)N3CCc4ccccc43)cs2)cc1OC`, for which the IC90 is 2.46 µM. Further, where the note is “HEPG2TOX_HILL_SLOPE 2.84, HEPG2TOX_R_SQUARED 0.79, PBLUC_HILL_SLOPE 2.13, PBLUC_R_SQUARED 0.686, read-out: LUCIFERASE INFECTION ASSAY - IC50”, the IC50 was 0.875 µM.

As to `N#CC(C#N)=NNc1cc(Cl)cc(Cl)c1`, the IC90 stood at 0.565 µM. Moreover, the IC50 (HEPG2TOX_HILL_SLOPE 2.85, HEPG2TOX_R_SQUARED 0.913, PBLUC_HILL_SLOPE 19.7, PBLUC_R_SQUARED 0.581, read-out: LUCIFERASE INFECTION ASSAY - IC50) was 0.505 µM.

Regarding `c1ccc(C(Nc2ncnc3sccc23)c2cccs2)cc1` (stereo unspecified), the IC90 is more than 10 µM. For the same compound, under “HEPG2TOX_HILL_SLOPE 2.82, HEPG2TOX_R_SQUARED 0.952, PBLUC_HILL_SLOPE 3.44, PBLUC_R_SQUARED 0.151, read-out: LUCIFERASE INFECTION ASSAY - IC50”, the 50% inhibitory concentration (IC50) stood at 7.24 µM.

For the compound `COc1ccc(F)cc1CN(Cc1ccc(C(=O)NC2CC2)cc1)Cc1ccco1`, the IC90 was 0.722 µM. Besides, for the setting “HEPG2TOX_HILL_SLOPE 2.87, HEPG2TOX_R_SQUARED 0.785, PBLUC_HILL_SLOPE 1.38, 16.4, PBLUC_R_SQUARED 0.804, 0.717, read-out: LUCIFERASE INFECTION ASSAY - IC50”, the IC50 turned out to be 0.286 µM.

In the case of `O=C(c1cnc(Nc2cccc(Oc3ccccc3)c2)[nH]1)c1ccccc1F`, the IC90 is 3.36 µM. Moreover, the IC50 (HEPG2TOX_HILL_SLOPE 2.89, HEPG2TOX_R_SQUARED 0.712, PBLUC_HILL_SLOPE 12, PBLUC_R_SQUARED 0.715, read-out: LUCIFERASE INFECTION ASSAY - IC50) was 2.8 µM.

As to `O=C(NNC(=O)c1cnn(-c2ccccc2)c1C(F)(F)F)c1ccc2ccccc2n1`, the 90% effect concentration (IC90) turned out to be 3.75 µM. In addition, the IC50 (HEPG2TOX_HILL_SLOPE 2.84, HEPG2TOX_R_SQUARED 0.957, PBLUC_HILL_SLOPE 16.4, PBLUC_R_SQUARED 0.688, read-out: LUCIFERASE INFECTION ASSAY - IC50) came out at 3.28 µM.

`C[C@]12CCC3C(CC[C@]4(O)C[C@@H](O)CC[C@]34/C=N/O)[C@@]1(O)CC[C@@H]2C1=CC(=O)OC1` (stereo partly specified): the IC90 was determined as 0.165 µM. For the setting “HEPG2TOX_HILL_SLOPE 2.86, HEPG2TOX_R_SQUARED 0.935, PBLUC_HILL_SLOPE 2.2, PBLUC_R_SQUARED 0.866, read-out: LUCIFERASE INFECTION ASSAY - IC50”, the IC50 was found to be 0.0609 µM.

As for `COc1ccc(-c2csc3ncnc(NCC(=O)NC(C)C)c23)cc1`, the 90% effect concentration (IC90) is more than 10 µM. For the same compound, under “HEPG2TOX_HILL_SLOPE 2.82, HEPG2TOX_R_SQUARED 0.984, PBLUC_HILL_SLOPE 1.1, PBLUC_R_SQUARED 0.732, read-out: LUCIFERASE INFECTION ASSAY - IC50”, the IC50 turned out to be 2.59 µM.

Regarding `O=C(NC1CC1)c1csc(C(O)c2cccc(C(F)(F)F)c2)n1` (stereo unspecified), the IC90 turned out to be 1.14 µM. The IC50 (HEPG2TOX_HILL_SLOPE 2.89, HEPG2TOX_R_SQUARED 0.879, PBLUC_HILL_SLOPE 2.14, PBLUC_R_SQUARED 0.663, read-out: LUCIFERASE INFECTION ASSAY - IC50) turned out to be 0.408 µM.

For the compound `COc1cc(Nc2ncc3c(n2)CCN(C(=O)Nc2ccc(OC(F)(F)F)cc2)C3)cc(OC)c1OC`, the IC90 was more than 6.35 µM. Also, the IC50 (HEPG2TOX_HILL_SLOPE 2.89, HEPG2TOX_R_SQUARED 0.596, read-out: LUCIFERASE INFECTION ASSAY - IC50) was more than 6.35 µM.

For `c1ccc(CNc2nc3cnc(-c4ccc5ccccc5c4)cc3[nH]2)cc1`, the 90% effect concentration (IC90) was more than 10 µM. Also, the IC50 (HEPG2TOX_HILL_SLOPE 2.88, HEPG2TOX_R_SQUARED 0.737, PBLUC_HILL_SLOPE 2.3, PBLUC_R_SQUARED 0.668, read-out: LUCIFERASE INFECTION ASSAY - IC50) was determined as 4.89 µM.

Turning to `COc1ccc(/C=C2\N=C(SCc3cn4ccsc4n3)N(c3cc(C)cc(C)c3)C2=O)cc1`, the IC90 is more than 10 µM. Also, the 50% inhibitory concentration (IC50) (HEPG2TOX_HILL_SLOPE 2.87, HEPG2TOX_R_SQUARED 0.677, PBLUC_HILL_SLOPE 15.6, PBLUC_R_SQUARED 0.508, read-out: LUCIFERASE INFECTION ASSAY - IC50) was found to be 9.65 µM.

As to `CC(C)(C)c1ccc(-c2cc(NC(=O)c3ccc(Cl)cc3Cl)[nH]n2)cc1`, the concentration for an effect of 90% (IC90) turned out to be 3.08 µM. Also, the half-inhibitory concentration (IC50) (HEPG2TOX_HILL_SLOPE 2.82, HEPG2TOX_R_SQUARED 0.976, PBLUC_HILL_SLOPE 3.98, PBLUC_R_SQUARED 0.745, read-out: LUCIFERASE INFECTION ASSAY - IC50) amounted to 1.77 µM.

In the case of `COc1ccc(S(=O)(=O)N2CCSc3cc(Cl)ccc32)cc1`, the IC90 stood at 3.18 µM. Where the note is “HEPG2TOX_HILL_SLOPE 2.85, HEPG2TOX_R_SQUARED 0.925, PBLUC_HILL_SLOPE 20.1, PBLUC_R_SQUARED 0.623, read-out: LUCIFERASE INFECTION ASSAY - IC50”, the IC50 amounted to 2.85 µM.

In the case of `Cc1c(C#N)c(Sc2ccccc2NC(=O)c2ccco2)nc2ccccc12`, the IC90 amounted to 8.38 µM. The IC50 (HEPG2TOX_HILL_SLOPE 2.88, HEPG2TOX_R_SQUARED 0.661, PBLUC_HILL_SLOPE 2.8, PBLUC_R_SQUARED 0.14, read-out: LUCIFERASE INFECTION ASSAY - IC50) worked out at 3.82 µM.

Regarding `COC(=O)c1c(OC)ccc(NC(=O)NC(=O)c2c(OC)c(Cl)cc(Cl)c2OC)c1OC`, the IC90 was 2.63 µM. For the same compound, the half-inhibitory concentration (IC50) (HEPG2TOX_HILL_SLOPE 2.83, HEPG2TOX_R_SQUARED 0.683, PBLUC_HILL_SLOPE 11.5, PBLUC_R_SQUARED 0.299, read-out: LUCIFERASE INFECTION ASSAY - IC50) worked out at 2.18 µM.

With `COc1ccc(C)cc1N1CC(C(=O)Nc2nc3ccccc3[nH]2)CC1=O` (stereo unspecified), the IC90 was determined as 4.27 µM. Besides, under “HEPG2TOX_HILL_SLOPE 2.88, HEPG2TOX_R_SQUARED 0.929, PBLUC_HILL_SLOPE 3.77, PBLUC_R_SQUARED 0.362, read-out: LUCIFERASE INFECTION ASSAY - IC50”, the IC50 turned out to be 2.38 µM.

For `Cc1cccc(C(=O)Nc2ccc(N3CCc4sccc4C3)nc2)c1[N+](=O)[O-]`, the 90% effect concentration (IC90) was more than 10 µM. Where the note is “HEPG2TOX_HILL_SLOPE 2.87, HEPG2TOX_R_SQUARED 0.919, PBLUC_HILL_SLOPE 1.54, PBLUC_R_SQUARED 0.645, read-out: LUCIFERASE INFECTION ASSAY - IC50”, the IC50 came out at 2.52 µM.
